{
  "source": "patent US20250346643A1",
  "about": "“TROPOMYOSIN KINASE RECEPTOR (TRK) LIGANDS AS THERAPEUTICS TO SUPPORT LIVER REGENERATION” (Vanderbilt University, priority 2024, published 2025)",
  "key": {"mTORC1": {"tested_on": "mTORC1", "test": "Immunoblotting of HDOs for P-S6RP and P-P70S6K (mTORC1 activation)", "assay_type": "cell-based, human", "procedure": "Human ductal organoids. The normal human liver tissue was obtained through the Cooperative Human Tissue Network (CHTN) at Vanderbilt University Medical Center. The liver was cut into very small pieces in liver digestion medium (Gibco, Waltham, MA; 17703-034). The cell suspension was filtered through a 100-μm cell strainer. The flow through was then centrifuged for 2 min at 100 g, 4° C., and the cell pellet resuspended in ice-cold DMEM (Gibco, Waltham, MA; 11885-084, supplemented by 5% FBS) and centrifuged for 2 min at 300 g. The cell pellet was gently resuspended in Matrigel® (Corning, Corning, NY; 356231) and a […] dome plated in a 24-well plate. The plate was incubated for 10-15 min at 37° C. After solidifying, complete HepatiCult™ Organoid Initiation Medium (OIM) (STEMCELL Technologies, Vancouver, Canada; 100-0384) was added. For passaging, the Matrigel dome was dissociated using TrypLE (Thermo Fisher Scientific, Waltham, MA; 12604013) and incubated at 37° C. for 5 mins. Organoids were washed by resuspending in advanced DMEM/F12 and consecutive resuspension of the organoid pellet. Organoids were resuspended at a 1:10 dilution in Matrigel® and cultured in complete HepatiCult™ Organoid Growth Medium (OGM) (STEMCELL Technologies, Vancouver, Canada; 100-0385) for organoid expansion. For hepatocytic differentiation of hepatic ductal organoids, culture medium was changed to complete HepatiCult™ Organoid Differentiation Medium (ODM) (STEMCELL Technologies, 100-0383) 4 days after passaging. Vehicle, NTF3, BDNF, HGF (20 ng/ml final concentration) or Taletrectinib (Fisher Scientific, Waltham, MA; 502030245, final concentration 10 nM) or torin2 (Fisher Scientific, Waltham, MA; s2817, final concentration 25 nM) were diluted in William's E (without L-glutamine) and added to organoids.\nImmunoblotting. HDOs and mpPHH were homogenized in RIPA buffer containing proteinase inhibitors (Roche, Basel, Switzerland; cOmplete™ Mini protease inhibitor, 2 tab/10 ml buffer) and 1×HALT phosphatase inhibitors (Thermo Fisher Scientific, Waltham, MA; catalog no. 78428). Lysates were sonicated and then centrifuged for 10 min at 18,800 g. Protein concentration of supernatants was determined by Direct Detect Spectrophotometer (MilliporeSigma, Burlington, MA). HDOs were treated with growth factors as described above. Lyophilized NTF3 was solubilized with sterile-filtered PBS supplemented with 0.1% BSA, aliquoted, and stored at −80° C. until use. […] HDOs and mpPHH were collected on ice in PBS and centrifuged for 10 s, and the cell pellet was homogenized in RIPA buffer containing inhibitors (Roche, Basel, Switzerland; cOmplete™ Mini protease inhibitor, 1×HALT phosphatase inhibitors, Thermo Fisher Scientific, Waltham, MA; catalog no. 78428). Cell lysates were sonicated and centrifuged for 10 min at 18,800 g. The protein concentration of supernatants was determined by a Direct Detect® spectrophotometer (MilliporeSigma, Burlington, MA). For immunoblot analysis, 10 to 50 μg of protein diluted in […] sample buffer (Invitrogen, Waltham, MA) were analyzed per SDS-polyacrylamide gel electrophoresis (NuPAGE™, Invitrogen, Waltham, MA) using Mops buffer or MES buffer (Invitrogen, Waltham, MA). […] Semi-quantitative band densitometry was performed using ImageJ software (version 1.53)."}, "CCND1 and PCNA [1]": {"tested_on": "CCND1 and PCNA", "test": "Immunoblotting of mpPHH for CCND1 and PCNA", "assay_type": "cell-based, human", "conditions": "mpPHHs, co-incubation with torin2", "procedure": "(§1) Mouse passaged primary human hepatocytes. Mouse-passaged primary human hepatocytes (mpPHHs) were collected as previously described (Michailidis et al., Proc Natl Acad Sci USA. 2020; 117(3): 1678-1688) and cultured in hepatocyte culture media (CC-3198, Lonza, Basel, Switzerland) in collagen-coated chamber slides. Three days before treatment, mpPHH were incubated in William's E media (with L-glutamine). […] 5-15 images per treatment per experiment were randomly taken and EdU positive nuclei quantified.\n(§2) Immunoblotting. […] Protein concentration of supernatants was determined by Direct Detect Spectrophotometer (MilliporeSigma, Burlington, MA). […] The protein concentration of supernatants was determined by a Direct Detect® spectrophotometer (MilliporeSigma, Burlington, MA). For immunoblot analysis, 10 to 50 μg of protein diluted in […] sample buffer (Invitrogen, Waltham, MA) were analyzed per SDS-polyacrylamide gel electrophoresis (NuPAGE™, Invitrogen, Waltham, MA) using Mops buffer or MES buffer (Invitrogen, Waltham, MA). […] Semi-quantitative band densitometry was performed using ImageJ software (version 1.53)."}, "CCND1 and PCNA [2]": {"tested_on": "CCND1 and PCNA", "test": "Immunoblotting of HDOs for CCND1 and PCNA", "assay_type": "cell-based, human", "conditions": "co-incubation with torin2", "procedure": "Human ductal organoids. The normal human liver tissue was obtained through the Cooperative Human Tissue Network (CHTN) at Vanderbilt University Medical Center. The liver was cut into very small pieces in liver digestion medium (Gibco, Waltham, MA; 17703-034). The cell suspension was filtered through a 100-μm cell strainer. The flow through was then centrifuged for 2 min at 100 g, 4° C., and the cell pellet resuspended in ice-cold DMEM (Gibco, Waltham, MA; 11885-084, supplemented by 5% FBS) and centrifuged for 2 min at 300 g. The cell pellet was gently resuspended in Matrigel® (Corning, Corning, NY; 356231) and a […] dome plated in a 24-well plate. The plate was incubated for 10-15 min at 37° C. […]\nas §2"}, "mTOR": {"tested_on": "mTOR", "test": "Immunoblotting of mpPHH for P-S6RP and P-P70S6K (mTOR activation)", "assay_type": "cell-based, human", "conditions": "co-incubation with Torin2", "procedure": "as §1, §2"}, "TrkB [3]": {"molecular_target": "T1, TrkB (Homo sapiens, UniProt Q16620)", "T1 sequence (Q16620 32-822, species assumed)": "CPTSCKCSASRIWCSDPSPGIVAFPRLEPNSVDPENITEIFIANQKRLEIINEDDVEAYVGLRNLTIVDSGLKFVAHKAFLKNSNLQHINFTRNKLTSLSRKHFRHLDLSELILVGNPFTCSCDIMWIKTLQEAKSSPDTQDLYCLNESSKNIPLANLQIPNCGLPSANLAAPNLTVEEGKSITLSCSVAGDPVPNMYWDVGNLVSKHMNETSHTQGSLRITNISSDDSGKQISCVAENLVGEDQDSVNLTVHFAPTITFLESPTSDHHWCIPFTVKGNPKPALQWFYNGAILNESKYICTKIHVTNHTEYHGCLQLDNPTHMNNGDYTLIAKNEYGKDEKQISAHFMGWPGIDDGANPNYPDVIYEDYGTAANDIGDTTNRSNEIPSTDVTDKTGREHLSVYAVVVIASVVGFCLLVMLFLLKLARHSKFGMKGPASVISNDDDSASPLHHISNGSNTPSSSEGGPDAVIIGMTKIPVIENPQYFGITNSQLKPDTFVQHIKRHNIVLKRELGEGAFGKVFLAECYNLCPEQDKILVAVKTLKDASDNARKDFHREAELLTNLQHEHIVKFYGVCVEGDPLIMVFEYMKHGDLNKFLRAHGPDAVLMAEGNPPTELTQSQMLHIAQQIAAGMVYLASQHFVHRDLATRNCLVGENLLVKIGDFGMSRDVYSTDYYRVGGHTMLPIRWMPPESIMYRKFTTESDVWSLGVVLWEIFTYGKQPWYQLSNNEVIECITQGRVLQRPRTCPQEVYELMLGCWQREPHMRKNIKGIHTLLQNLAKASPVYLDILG", "conditions": "read-out: Kd (agonist of TrkB); cited from earlier work"}, "[4]": {"conditions": "in vivo, cited from earlier work"}, "TrkB [5]": {"molecular_target": "T1, TrkB", "conditions": "cited from earlier work"}, "TrkB [6]": {"molecular_target": "T1, TrkB", "conditions": "read-out: IC50 for inhibition of BDNF binding to TrkB; cited from earlier work"}, "proliferating HSCs": {"tested_on": "proliferating HSCs", "conditions": "Gfap-Tk mice, carbon tetrachloride and allyl alcohol for 10 days, co-administration of ganciclovir; cited from earlier work"}, "[7]": {"molecular_target": "TRKB (tropomyosin receptor kinase B, encoded by Ntrk2) on primary mouse hepatocytes (mouse) (UniProt P15209)", "sequence (P15209 32-821)": "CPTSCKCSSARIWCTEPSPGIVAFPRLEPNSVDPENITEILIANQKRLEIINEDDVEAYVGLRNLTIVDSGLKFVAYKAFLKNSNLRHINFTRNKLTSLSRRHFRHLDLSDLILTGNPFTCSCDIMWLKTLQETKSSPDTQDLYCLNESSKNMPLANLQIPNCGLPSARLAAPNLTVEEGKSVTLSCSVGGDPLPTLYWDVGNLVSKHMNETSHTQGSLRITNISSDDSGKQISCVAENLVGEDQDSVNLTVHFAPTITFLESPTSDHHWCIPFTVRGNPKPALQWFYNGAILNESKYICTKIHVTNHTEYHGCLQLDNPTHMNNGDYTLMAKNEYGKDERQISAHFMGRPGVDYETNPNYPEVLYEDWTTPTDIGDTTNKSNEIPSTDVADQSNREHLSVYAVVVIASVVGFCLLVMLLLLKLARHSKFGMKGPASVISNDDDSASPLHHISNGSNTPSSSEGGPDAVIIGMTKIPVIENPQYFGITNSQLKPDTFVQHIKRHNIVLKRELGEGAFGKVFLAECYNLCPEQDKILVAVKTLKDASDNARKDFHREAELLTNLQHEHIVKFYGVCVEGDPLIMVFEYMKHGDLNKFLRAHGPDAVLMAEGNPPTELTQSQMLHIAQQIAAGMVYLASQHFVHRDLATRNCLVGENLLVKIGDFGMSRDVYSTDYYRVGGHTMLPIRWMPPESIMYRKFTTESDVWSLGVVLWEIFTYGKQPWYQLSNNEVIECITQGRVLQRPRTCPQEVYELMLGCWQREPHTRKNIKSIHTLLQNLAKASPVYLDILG", "test": "cell-based or functional assay"}, "CCND1": {"tested_on": "CCND1", "test": "Western blot of CCND1 in HepG2 cell lysates", "assay_type": "cell-based, human", "conditions": "HepG2, Loxo-195 5-10 nM added to NTF3", "procedure": "Human HepG2 and mouse AML12 cells were grown in 6-well plates. Cells were treated with NTF3 (20 ng/ml) purchased from STEMCELL technologies, Vancouver, Canada (cat. 78074), R&D Systems, Minneapolis, MN (267-N3), Gibco, Waltham, MA (PHC7036) and/or Loxo-195 (5-10 nM) (Selleckchem, Houston, TX; S8636) in complete growth media without L-glutamine for 2 hours. Lyophilized NTF3 was solubilized with sterile filtered PBS supplemented with 0.1% BSA, aliquoted and stored at −80° C. until use. […] HepG2 and AML12 cells were collected on ice in PBS, centrifuged for 10 sec […] cell pellet homogenized in RIPA buffer containing inhibitors (Roche, Basel, Switzerland; complete Mini proteinase inhibitor, 1×HALT phosphatase inhibitors, Thermo Scientific, Waltham, MA; cat. 78428). Cell lysates were sonicated and centrifuged for 10 min at 18,800×g. Protein concentration of supernatants were determined by Direct Detect Spectrophotometer (MilliporeSigma, Burlington, MA).\n(§3) For immunoblot analysis, 30-50 μg of protein diluted in LSD sample buffer (Invitrogen, Waltham, MA) were analyzed per SDS-PAGE (NuPAGE™, Invitrogen, Waltham, MA) using MOPS buffer or MES buffer (Invitrogen, Waltham, MA). Gels were stained with Coomassie (Bio-Safe Coomassie G-250 Stain, Bio-Rad, Hercules, CA) and transferred onto PVDF membranes using semi-dry blotting (Trans-Blot SD, Bio-Rad, Hercules, CA). Images were visualized on an Amersham™ Imager 680 (Cytiva, Marlborough, MA). Semi-quantitative band densitometry was performed using ImageJ software (version 1.53)."}, "HepG2 cells": {"tested_on": "HepG2 cells", "test": "Cell proliferation assay (CellTiter-Glo) in HepG2 cells", "assay_type": "cell-based, human", "conditions": "Loxo-195 final concentration 5 nM, HepG2", "procedure": "(§4) Cell lines. Human HepG2 (ATCC HB-8065) were maintained in MEM media with 10% FBS and the mouse hepatocyte cell line AML12 (ATCC, Manassas, VA; CRL-2254) in DMEM/F12 media supplemented with dexamethasone (40 ng/ml) and Insulin-Transferrin-Selenium (Gibco, Waltham, MA; 41400045), containing 10% FBS and 1% penicillin and streptomycin. JS1 (RRID: CVCL_C7PL), LX2 (RRID: CVCL_5792, MilliporeSigma, Burlington, MA; SCC064) and TWNT4 (RRID: CVCL_W296) cells were cultured in DMEM supplemented with 10% FBS. 293T cells (ATCC, Manassas, VA; CRL-3216) were cultured in DMEM supplemented with 10% FBS.\n(§5) Cell proliferation assays. Primary mouse hepatocytes, HepG2 or AML 12 cells were grown in opaque-walled 96-well plates. NTF3 (final concentration 20 ng/ml) (STEMCELL Technologies, Vancouver, Canada; cat. 78074) and/or Loxo-195 (final concentration 5 nM) (Selleckchem, Houston, TX; S8636) were added into complete growth media without L-glutamine. Primary mouse hepatocytes were also grown in serum-free William's E media without supplements. Cells were analyzed by CellTiter-Glo® (Promega G7570, Madison, WI) which detects the number of viable cells on day 0 to day 5 by on detection systems GloMax® (Promega) or Bioteck Synergy H1 (Agilent, Santa Clara, CA). Mouse recombinant HGF (Abcam, Cambridge, UK; ab281797) was added to cell culture media at a final concentration 5 ng/ml. […]"}, "[8]": {"tested_on": "P-TRKA Tyr674/675, P-TRKB Tyr706/707", "test": "Western blot of phosphorylated TRK in HepG2 cell lysates", "assay_type": "cell-based, human", "conditions": "HepG2, Loxo-195 added to NTF3", "procedure": "Human HepG2 and mouse AML12 cells were grown in 6-well plates. […] Lyophilized NTF3 was solubilized with sterile filtered PBS supplemented with 0.1% BSA, aliquoted and stored at −80° C. until use. […] Cell lysates were sonicated and centrifuged for 10 min at 18,800×g. Protein concentration of supernatants were determined by Direct Detect Spectrophotometer (MilliporeSigma, Burlington, MA).\nas §3, with “MA).” for “MA). Semi-quantitative band densitometry was performed using ImageJ software (version 1.53).”"}, "AML12 cells": {"tested_on": "AML12 cells", "test": "Cell proliferation assay (CellTiter-Glo) in AML12 cells", "assay_type": "cell-based, mouse", "conditions": "Loxo-195 final concentration 5 nM, AML12", "procedure": "as §4, §5"}},
  "data": [
    {"compound": "Nc1ccc(-c2ccc3ncc4ccc(=O)n(-c5cccc(C(F)(F)F)c5)c4c3c2)cn1", "note": "[Torin2, reference compound]", "values": [
      {"measurement": "effect on NTF3- or insulin-induced phosphorylation of p70S6 kinase and S6RP", "setting": "mTORC1; HDO, co-incubation with Torin2 25 nM", "value": "decreased"},
      {"measurement": "phosphorylated S6rp (Ser240/244)", "setting": "mTORC1; HDOs cultured in glutamine free media, coincubation (FIG. 18G), Torin2 25 nM", "value": "decreased phosphorylated S6rp"},
      {"measurement": "effect on NTF3-induced CCND1 and PCNA", "setting": "CCND1 and PCNA [1]", "value": "inhibited"},
      {"measurement": "effect on NTF3-induced CCND1 and PCNA", "setting": "CCND1 and PCNA [2]", "value": "inhibited"},
      {"measurement": "effect on NTF3-induced P-S6RP and P-P70S6K", "setting": "mTOR", "value": "inhibited"}
    ]},
    {"compound": "O=c1cc(-c2ccccc2)oc2c(O)c(O)ccc12", "note": "[7,8-DHF, 7,8-dihydroxyflavone]", "values": [
      {"measurement": "Kd", "setting": "TrkB [3]", "value": "~320", "unit": "nM"},
      {"measurement": "oral bioavailability", "setting": "[4]; po", "value": "orally bioavailable"},
      {"measurement": "blood-brain barrier penetration", "setting": "[4]", "value": "able to penetrate the blood-brain barrier"}
    ]},
    {"compound": "O=C(NCCO)c1cc(C(=O)NCCO)cc(C(=O)NCCO)c1", "note": "[LM22A-4]", "values": [
      {"measurement": "intrinsic activity (IA)", "setting": "TrkB [5]; partial agonist of TrkB", "value": "about 85%"},
      {"measurement": "EC50", "setting": "TrkB [5]; read-out: EC50 for TrkB activation", "value": "0.2 to 0.5", "unit": "nM"},
      {"measurement": "IC50", "setting": "TrkB [6]", "value": 47, "unit": "nM"}
    ]},
    {"compound": "Nc1nc(O)c2ncn(COC(CO)CO)c2n1", "note": "[ganciclovir]", "values": [
      {"measurement": "depletion rate of proliferating HSCs", "setting": "proliferating HSCs", "value": "approximately 65%"}
    ]},
    {"compound": "recombinant neurotrophin-3 (NTF3) (from UniProt P20783 139-257) (ligand)", "values": [
      {"measurement": "proliferation of primary mouse hepatocytes (CellTiter-Glo), NTF3 20 ng/ml against vehicle", "setting": "[7]", "value": 1.5, "unit": "fold"}
    ]},
    {"compound": "C[C@@H]1CCc2ncc(F)cc2[C@H]2CCCN2c2ccn3ncc(c3n2)C(=O)N1", "note": "[Loxo-195, reference compound]", "values": [
      {"measurement": "effect on NTF3-induced CCND1 abundance", "setting": "CCND1", "value": "inhibited"},
      {"measurement": "inhibition of NTF3-induced proliferation", "setting": "HepG2 cells", "value": "significantly inhibited proliferation"},
      {"measurement": "effect on NTF3-induced TRK phosphorylation", "setting": "[8]", "value": "decreased"},
      {"measurement": "inhibition of NTF3-induced proliferation", "setting": "AML12 cells", "value": "significantly inhibited proliferation"}
    ]}
  ]
}
